Test [1] has as its target Dihydroorotate dehydrogenase (quinone), mitochondrial (Homo sapiens, UniProt Q02127). The test is described as follows: (§1) Enzymatic Assays: Type 2 DHODH activity was monitored with either the direct assay measuring the formation of orotate or via a chromogen reduction assay using DCIP. Although the extinction coefficient and absorption wavelength are preferable for the chromogen reduction assay, the […] electron acceptor DCIP can be utilized by DHODH as the final electron acceptor in lieu of CoQn when the endogenous substrate is at a low concentration. As such, the direct assay was used to measure the binding affinity of pfDHODH to CoQD and L-DHO. The enzymatic reaction was performed by varying the L-DHO concentration (1-400 μM) or CoQD concentration (1-200 μM) while keeping the other substrate constant and in excess. Inhibition of DHODH by small molecules was evaluated using the chromogen based assay with a final substrate concentration of 200 μM L-DHO, 18 μM CoQD, and 100 μM DCIP, unless otherwise noted.

In test [2] the target is T1, Dihydroorotate dehydrogenase (fumarate) (Saccharomyces cerevisiae S288c, UniProt P28272).
T1 sequence (P28272 whole entry): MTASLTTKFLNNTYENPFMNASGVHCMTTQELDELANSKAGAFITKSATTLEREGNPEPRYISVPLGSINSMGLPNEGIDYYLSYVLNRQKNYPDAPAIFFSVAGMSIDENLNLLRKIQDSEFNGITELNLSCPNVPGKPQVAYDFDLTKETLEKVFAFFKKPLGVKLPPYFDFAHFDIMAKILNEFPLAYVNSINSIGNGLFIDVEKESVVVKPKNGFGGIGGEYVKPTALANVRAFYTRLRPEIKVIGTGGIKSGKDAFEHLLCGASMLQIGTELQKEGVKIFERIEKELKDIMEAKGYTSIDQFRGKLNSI
Described as §1.

Test [3] deals with T2, Dihydroorotate dehydrogenase, mitochondrial, putative (Plasmodium vivax (strain Salvador I), UniProt A5K1N1).
T2 sequence (A5K1N1 whole entry): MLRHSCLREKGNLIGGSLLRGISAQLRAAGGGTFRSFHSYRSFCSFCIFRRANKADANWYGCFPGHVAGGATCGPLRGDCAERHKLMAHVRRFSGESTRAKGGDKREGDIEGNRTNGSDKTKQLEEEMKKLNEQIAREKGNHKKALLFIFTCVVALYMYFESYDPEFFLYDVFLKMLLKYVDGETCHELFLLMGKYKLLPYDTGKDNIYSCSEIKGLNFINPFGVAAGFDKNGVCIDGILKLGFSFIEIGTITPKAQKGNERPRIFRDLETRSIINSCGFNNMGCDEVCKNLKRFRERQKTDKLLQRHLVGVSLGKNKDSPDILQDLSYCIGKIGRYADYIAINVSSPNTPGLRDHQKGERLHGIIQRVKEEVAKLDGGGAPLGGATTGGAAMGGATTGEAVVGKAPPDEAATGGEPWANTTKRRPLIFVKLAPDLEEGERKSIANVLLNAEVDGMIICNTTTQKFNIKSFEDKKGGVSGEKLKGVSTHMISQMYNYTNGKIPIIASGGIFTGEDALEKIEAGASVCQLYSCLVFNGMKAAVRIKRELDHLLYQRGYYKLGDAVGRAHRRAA
The test is described as §1.

Dihydroorotate dehydrogenase (quinone), mitochondrial, sequence (Q02127 whole entry): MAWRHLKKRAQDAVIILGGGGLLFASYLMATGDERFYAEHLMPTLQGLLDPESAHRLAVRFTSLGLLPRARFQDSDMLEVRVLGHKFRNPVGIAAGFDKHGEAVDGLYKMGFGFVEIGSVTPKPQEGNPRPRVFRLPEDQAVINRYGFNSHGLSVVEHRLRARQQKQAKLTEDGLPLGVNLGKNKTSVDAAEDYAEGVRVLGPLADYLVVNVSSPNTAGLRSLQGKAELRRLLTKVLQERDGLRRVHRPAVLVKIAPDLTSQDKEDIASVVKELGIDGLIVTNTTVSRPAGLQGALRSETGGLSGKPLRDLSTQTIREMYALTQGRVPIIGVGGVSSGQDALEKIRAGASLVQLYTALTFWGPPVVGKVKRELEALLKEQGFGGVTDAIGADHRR

For `CCCNC(=O)c1ccc(N2CCN(C)CC2)s1`, in test [1], the IC50 (usually the concentration needed to halve the response being measured) is above 30 µM.

Regarding `Fc1cc(I)ccc1Nc1ccnc2cc(Cl)ccc12`, the IC50 in test [1] was above 30 µM; in test [2], above 10 µM; in test [3], above 10 µM.

In the case of `Cc1ccccc1/C=C/c1cc(O)c2ccccc2n1`, the IC50 in test [3] was determined as 5.6 µM.

Regarding `CCCCCC1CCCc2c1nc1ccccc1c2O` (configuration not stated), the IC50 in test [2] was above 10 µM.

The compound `CCOC(=O)c1[nH]c(C)c(Cc2ccc(OCC)cc2)c1C` registered an IC50 in test [2] above 10 µM.

These data come from ChEMBL document CHEMBL3639068, “Small molecule inhibitors of Plasmodium falciparum dihydroorotate dehydrogenase” (2014).
